Test [1] relates to primary rat calvaria osteoblasts. Description: Mineralization by 45Ca incorporation in cultured rat calvaria osteoblasts. The format is cell-based. The conditions noted are these: fetal rat calvaria cells. The protocol: In general, to show stimulation of mineralization in cultured cells by PHEX inhibitors, cells of osteoblast lineage are incubated in conditions that favors the mineralization process in the absence and the presence of the PHEX inhibiting compound. This cellular model is used to study osteoblasts proliferation and differentiation, and to follow the mineralization process.
Mineralization can be monitored by standard techniques such as von Kossa staining or ^45Ca incorporation in the extracellular matrix.
For example, cells were enzymatically isolated from the calvaria of 21-day old Wistar rat fetuses by sequential digestion with collagenase as described previously (Bellows et al., 1986). Cells obtained from the last four of the five digestion steps were plated in T-75 flasks in α-MEM containing 15% FBS (Cansera) and antibiotics comprising 100 μg/ml penicillin G (Sigma-Aldrich), 50 μg/ml gentamycin (Life Technologies), and 0.3 μg/ml fungizone (Life Technologies). […]
At day 18, 21 and 25 of rat calvaria osteoblasts culture, mineralization was determined by ^45Ca incorporation assay as described previously (Ecarot et Desbarats, 1999). […] Cell layers were solubilized in 12.5% trichloroacetic acid and aliquots counted for radioactivity.

For test [2], the system named is rat mandibular defect. Description: Bone lesion repair in rat mandibular defect model (hydroxyapatite particles soaked in inhibitor). The format is in vivo. The conditions noted are these: for bone formation (scanning electron microscopy, % of total defect area): 14 days of healing. The procedure: Osteogenic properties of PHEX inhibitors can be shown in a model of rat mandibular defect. For example, a 2 mm size bone defect was created in the rat mandible as described previously (Vu et al., 1999). Rats were anesthetized and the vestibular surface of the right mandibular ramus was exposed as follow: an incision was made through the skin along an imaginary line forming a 90° angle with the lower lip to access the muscle layer. A scalpel blade was used to make an incision parallel to the fibers of the deep portion of masseter muscle, about 2 mm posterior to the facial artery (largest branch of the external carotid), in the portion where it gives rise to the labial mandibular artery. The periosteum was elevated and the underlying bony surface exposed. A 2 mm×2 mm bony window was drilled between the second and third molar using a slow-speed dental drill with a carbide round burr size 1.4 mm (Brasseler) and a drill size 2 mm (Straumann Canada Ltd). Saline irrigation was used during the drilling. Porous hydroxyapatite particles (Fin-Ceramica Faenza s.r.l.) with pore size ranged from 450 to 600 μm were accommodated in the bony hole and pushed into it. The particles had been incubated previously in solutions of varying concentrations of PHEX inhibitor or vehicle for 16 to 24 hours at 4° C. Once the bony window was filled the lesion was covered with a membrane of hydroxyapatite (Fin-Ceramica Faenza s.r.l.) which was fixed to the surrounding bone surface with topical tissue adhesive. The muscle fibers were carefully repositioned on the mandible and sutured with absorbable surgical sutures (Chromic Gut, Ethicon Inc.). The skin was sutured for total coverage with silk sutures (Sherwood Davis & Geck, Wayne). After 7 days of treatment the bone lesion was exposed and varying concentrations of PHEX inhibitor or vehicle was reapplied to hydroxyapatite particles. Treatment was continued for another 7 days.
After the 14 day healing period, bone formation at the defect was evaluated by scanning electron microscopy and microcomputed tomography. Animals were sacrificed by intravascular perfusion through the left ventricle with 4% paraformaldehyde and 0.1% glutaraldehyde solution. Treated hemimandibles were taken, immersed in the fixative overnight at 4° C. then washed and kept in 0.1 M cacodylate buffer pH 8.0 until analysis. Specimens for quantification by scanning electron microscopy were dehydrated in a graded alcohol series and embedded in LR White resin (Marivac) for further sectioning along their longitudinal axis. […] Amount of bone tissue present in the sections was quantified by manual tracing using the MOP-3 system (Carl Zeiss) and was expressed as a percentage of the total defect area.

For the compound `O=C(O)CC(CC(=O)NO)C(=O)NCCc1ccc(-c2ccccc2)cc1` (stereo not drawn) [Example 126, 3-(2-Biphenyl-4-yl-ethylcarbamoyl)4-hydroxycarbamoyl-butyric acid], the “45Ca incorporation by the cells (mineralization)” value is given as “reduced significantly” in test [1] (1×10^−5 M (high dose)) and “significantly stimulated” in test [1] (lower concentrations, low dose (10^−6 M)). The “bone formation (scanning electron microscopy, % of total defect area)” value is on record as “reduced significantly” in test [2] (1×10^−5 M on hydroxyapatite particles, compared to saline) and “significantly stimulated” in test [2] (lower concentrations on hydroxyapatite particles). Also, in test [2] (high inhibitor dose, one representative specimen per group), the “bone formation (microcomputed tomography 3D reconstruction)” value is “reduced bone formation”. For the same compound, the “bone around particles (microcomputed tomography 3D reconstruction)” value in test [2] (low dose of inhibitor vs saline, one representative specimen per group) was “more bone”.
